pIC50: −log10 of the molar value. Values belong to the molecule of their own block, whether it stands above or below them.
Tests used:
Pancreas tumor cells = test: Pancreas tumor cell viability after combined treatment (MTT test); format: cell-based; details: 24 h; for cell viability (MTT), combination of AD2730 and ADYZ197: 2 μM AD2730 combined with 10 μM ADYZ197
Procedure: FIG. 3A-3B: The viability of pancreatic cells using different drug combination for 24, h (MTT test)
The inventors next examined the effect of combining the compound of the invention with known chemotherapeutic drugs. Pancreas tumor cells were incubated with 1 μM taxol and 2 μM AD2750, (separately and in combination). The results are shown in the left part of the graph, in FIG. 3A, as percent of viable cells (checked by MTT). A combination of 20 μM fluorouracil and 8 μM AD2750 is shown in the right part of the graph, in FIG. 3A.
The inventors next examined the potential anti-cancerous effect of other compounds of Formula II. Therefore, pancreas tumor cells were incubated with 2 μM AD2730 and 10 μM ADYZ197, separately and in combination. The results are presented in the left part of the graph, in FIG. 3B, as percent of viable cells (checked by MTT).

Du-145 = test: IC50 in cancer cell lines (Table 1), Du-145; format: cell-based; details: Homo sapiens, Du-145 (Prostate)
LNCaP = test: IC50 in cancer cell lines (Table 1), LNCaP; format: cell-based; details: Homo sapiens, LNCaP (Prostate)
PC-3 = test: IC50 in cancer cell lines (Table 1), PC-3; format: cell-based; details: Homo sapiens, PC-3 (Prostate)
CRL-5803 = test: IC50 in cancer cell lines (Table 1), CRL-5803; format: cell-based; details: CRL-5803 (NSCLC, Lung carcinoma), incubation 24 hours, FCS yes, 0.1 × 10^6/ml plated cells
CRL-1687 = test: IC50 in cancer cell lines (Table 1), CRL-1687; format: cell-based; details: CRL-1687 (Pancreas), incubation 24 hours, FCS yes, 0.2*10^6/ml plated cells
CRL-5891 = test: IC50 in cancer cell lines (Table 1), CRL-5891; format: cell-based; details: CRL-5891 (NSCLC, Lung carcinoma), incubation 24 hours, FCS no, 0.1 × 10^6/ml plated cells
MEL624 = test: IC50 in cancer cell lines (Table 1), MEL624; format: cell-based; details: MEL624 (Melanoma), incubation 24 hours, FCS yes, 0.1 × 10^6/ml plated cells
CRL-1976 = test: IC50 in cancer cell lines (Table 1), CRL-1976; format: cell-based; details: CRL-1976 (Sarcoma), incubation 24 hours, FCS yes, 0.2*10^6/ml plated cells
CCL-224 = test: IC50 in cancer cell lines (Table 1), CCL-224; format: cell-based; details: CCL-224 (Colon), incubation 24 hours, FCS no, 0.2*10^6/ml plated cells
MDA-MB-435 cells = test: MDA-MB-435 survival experiment in nude mice; format: in vivo; details: CD1-nude mice injected iv with 3×10^6 MDA-MB-435 cells; 20 mg/kg in the drinking water beginning day 1; to day 100
Procedure: CD1-nude mice were injected iv with 3×10^6 MDA-MB-435 cells, which are usually considered as metastatic human breast cancer, but recently are also considered as model cells for melanoma. The mice were treated with AD2750, 20 mg/kg in the drinking water beginning day 1. On day 100, the remaining mice were sacrificed, and the pathology was determined.

[1] = system: pancreas tumor cells (CRL-1687); test: Pancreas tumor (CRL-1687) growth in CD1-nude mice; format: in vivo; details: 5×10^6 CRL-1687 cells id, 30 mg/kg ip in 10% CE beginning day 1, up to 35 days
Procedure: In order to examine the applicability of the compounds of the invention as an anti-cancerous drug, the inventors next examined the effect of i.p. administration of AD2750, on pancreas tumor. Therefore, CD1-nude mice were injected id with 5×10^6 pancreas tumor cells (CRL-1687). The mice were treated ip, with AD2750, beginning day 1, 30, mg/kg in 0.2 ml 10% CE, for up to 35 days. Tumor size was measured and calculated every 5-7 days beginning day 8.

BxPC-3 tumor = test: BxPC-3 human pancreatic tumor xenograft efficacy study; format: in vivo; details: BxPC-3 s.c. in athymic NCr-nu/nu mice
Text: BxPC-3 Human Pancreatic Tumor Model
Thirty-to-forty mg tumor fragments of BxPC-3 tumor from a continuous in vivo passage were implanted subcutaneously (sc) into athymic NCr-nu/nu mice using 12-gauge trocar needles.
Animals were purchased from NCI-approved animal facilities (4-5 weeks old) and acclimated in the laboratories one week prior to experimentation. The animals were housed in microisolator cages in a 12-hour light/dark cycle. Animals received filter-sterilized water and sterile rodent food ad libitum. Cages were changed a minimum of twice weekly. The animals were weighed twice weekly and observed daily (for about sixty days of experiment) for clinical signs.
Tumor Measurements and Body Weights: Tumors measurements and animal body weights are recorded twice weekly. Tumor volume was determined by caliper measurements (mm) and using the formula for an ellipsoid sphere: Length×Width^2/2=Volume (mm^3)
This commonly used formula is also used to calculate tumor weight, assuming unit density (1 mm^3=1 mg).
Parameters Evaluated: For sc tumors trials, a T-C value based on 1, 2, 3 or 4 tumor volume doubling time (days), as appropriate for the particular trial, was made. This evaluation is based on tumor size of the control animals at the end of the treatment period. A T/C (%) or T/C (%) value was determined. […]

HL-60 = test: IC50 in cancer cell lines (Table 1), HL-60; format: cell-based; details: Homo sapiens; HL-60 (Promyelocytic leukemia), incubation 24 hours, FCS no, 0.1 × 10^6/ml plated cells
[2] = incubation 24 hours, FCS no, 0.1 × 10^6/ml plated cells
[3] = incubation 72 hours, FCS yes, 0.05 × 10^6/ml plated cells
[4] = incubation 24 hours, FCS yes, 0.1 × 10^6/ml plated cells
[5] = incubation 48 hours, FCS yes, 0.1 × 10^6/ml plated cells

SMILES: CCCCNC(CO)C(O)c1ccccc1 (centres unmarked) [AD2730, 2-(butylamino)-1-phenylpropane-1,3-diol]
cell viability (MTT), combination of AD2730 and ADYZ197 (Pancreas tumor cells): significant synergistic effect on reduction of cell viability

SMILES: CCCCCCCCCCCCCCNC(CO)CO [AD2750, 2-(tetradecylamino)propane-1,3-diol]
pIC50 (Du-145; [2]): 5.48 | pIC50 (Du-145; [3]): 5.12 | pIC50 (LNCaP; LNCaP, 24 h, incubation 24 hours, FCS no, 0.1 × 10^6/ml plated cells): 5.31 | pIC50 (LNCaP; LNCaP, 24 h, incubation 24 hours, FCS yes, 0.1 × 10^6/ml plated cells): 4.82 | pIC50 (LNCaP; LNCaP, 48 h, incubation 48 hours, FCS yes, 0.1 × 10^6/ml plated cells): 5.06 | pIC50 (LNCaP; LNCaP, 72 h, incubation 72 hours, FCS yes, 0.05 × 10^6/ml plated cells): 5.41 | pIC50 (PC-3; [4]): 4.91 | pIC50 (PC-3; [3]): 5.17 | pIC50 (CRL-5803): 4.96 | pIC50 (CRL-1687): 4.82 | pIC50 (CRL-5891): 5.10 | pIC50 (MEL624): 5.05 | pIC50 (CRL-1976): 5.30 | pIC50 (CCL-224): 4.89 | survival of treated animals (MDA-MB-435 cells): increased survival | tumor incidence (MDA-MB-435 cells): significantly reduced tumor incidence | reduction in tumor volume [1]: about 5 folds | tumor cell viability (MTT), combination with Taxol (Pancreas tumor cells; 2 μM AD2750 combined with 1 μM taxol): markedly reduced tumor cell viability | tumor cell viability (MTT), combination with fluorouracil (Pancreas tumor cells; 8 μM AD2750 combined with 20 μM fluorouracil): markedly reduced tumor cell viability | tumor volume, monotherapy (BxPC-3 tumor; 20 or 30 mg/kg i.p. daily for 28 days, vs vehicle): clearly reduced tumor volume in a dose dependent manner | tumor volume, combination with Camptosar (BxPC-3 tumor; AD2750 20 or 30 mg/kg with Camptosar 60 or 30 mg/kg i.p. for 28 days): significant reduction in tumor volume

pIC50 (Du-145; [2]): < 4.30 | pIC50 (PC-3; [2]): < 4.30
SMILES: CCCCCCCCCCNC(CO)(CO)CO [ADYZ195, 2-(decylamino)-2-(hydroxymethyl)propane-1,3-diol]

pIC50 (Du-145; [4]): 5.12 | pIC50 (LNCaP; [2]): 4.37 | pIC50 (LNCaP; [5]): 4.62 | pIC50 (LNCaP; incubation 72 hours, FCS yes, 0.5 × 10^6/ml plated cells): 5.52 | pIC50 (PC-3; [5]): 5.09 | pIC50 (PC-3; [3]): 5.36 | pIC50 (CRL-5803): 4.70 | pIC50 (CRL-1687): 4.66 | pIC50 (CRL-5891): 5.00 | pIC50 (MEL624): 5.52 | pIC50 (CRL-1976): 4.70 | pIC50 (HL-60): 4.82
SMILES: CCCCCCCCCCCCCCCCCCNC(CO)(CO)CO [ADYZ197, 2-(octadecylamino)-2-(hydroxymethyl)propane-1,3-diol]
cell viability (MTT), combination of AD2730 and ADYZ197 (Pancreas tumor cells): significant synergistic effect on reduction of cell viability | tumor cell viability (MTT), combination with fluorouracil (Pancreas tumor cells; 10 μM ADYZ197 combined with 20 μM fluorouracil): significant reduction of tumor cell viability

From patent US8962891B2, “Synthetic analogs of sphingolipids” (Hadasit Medical Research Services & Development Limited, priority 2007, dated 2015)
